Target: T1, Pfu DNA Polymerase II (Pyrococcus furiosus, UniProt P81409+P81412)
T1 construct: made in house; host or cells: Escherichia coli JM109/pFU1001 (FERM BP-5579)
T1 sequence (P81409 1-1263): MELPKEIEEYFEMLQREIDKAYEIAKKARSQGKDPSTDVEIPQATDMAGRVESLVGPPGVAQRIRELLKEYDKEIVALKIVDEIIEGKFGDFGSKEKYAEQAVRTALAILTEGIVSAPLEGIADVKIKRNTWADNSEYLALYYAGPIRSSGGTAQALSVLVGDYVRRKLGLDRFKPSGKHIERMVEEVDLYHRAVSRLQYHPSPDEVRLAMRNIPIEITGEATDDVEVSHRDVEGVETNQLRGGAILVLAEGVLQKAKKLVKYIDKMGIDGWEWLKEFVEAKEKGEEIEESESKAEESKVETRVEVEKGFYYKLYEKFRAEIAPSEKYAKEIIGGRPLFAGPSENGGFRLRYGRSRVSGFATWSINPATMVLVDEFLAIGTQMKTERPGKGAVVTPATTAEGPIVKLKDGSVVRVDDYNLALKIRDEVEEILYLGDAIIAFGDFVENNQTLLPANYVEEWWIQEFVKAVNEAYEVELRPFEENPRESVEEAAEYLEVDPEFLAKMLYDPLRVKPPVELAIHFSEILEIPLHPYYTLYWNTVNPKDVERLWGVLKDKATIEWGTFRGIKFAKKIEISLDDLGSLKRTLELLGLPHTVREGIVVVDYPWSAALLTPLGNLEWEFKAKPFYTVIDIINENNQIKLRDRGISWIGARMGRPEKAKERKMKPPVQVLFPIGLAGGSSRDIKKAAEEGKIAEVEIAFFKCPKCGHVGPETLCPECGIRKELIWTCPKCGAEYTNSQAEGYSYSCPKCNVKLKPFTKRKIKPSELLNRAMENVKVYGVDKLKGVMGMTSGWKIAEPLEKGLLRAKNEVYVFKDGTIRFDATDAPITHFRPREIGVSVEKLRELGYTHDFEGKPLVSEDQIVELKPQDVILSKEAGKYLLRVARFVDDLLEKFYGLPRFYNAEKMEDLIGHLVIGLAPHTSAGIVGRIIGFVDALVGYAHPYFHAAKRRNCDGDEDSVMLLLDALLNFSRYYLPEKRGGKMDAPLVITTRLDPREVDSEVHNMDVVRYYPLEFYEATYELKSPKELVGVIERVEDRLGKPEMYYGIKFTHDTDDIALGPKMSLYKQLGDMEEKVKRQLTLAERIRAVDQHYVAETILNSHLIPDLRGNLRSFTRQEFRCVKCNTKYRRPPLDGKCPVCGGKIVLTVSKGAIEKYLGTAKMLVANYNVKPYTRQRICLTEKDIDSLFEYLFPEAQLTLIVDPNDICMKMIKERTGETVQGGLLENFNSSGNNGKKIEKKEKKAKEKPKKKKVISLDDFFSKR
T1 sequence (P81412 1-613): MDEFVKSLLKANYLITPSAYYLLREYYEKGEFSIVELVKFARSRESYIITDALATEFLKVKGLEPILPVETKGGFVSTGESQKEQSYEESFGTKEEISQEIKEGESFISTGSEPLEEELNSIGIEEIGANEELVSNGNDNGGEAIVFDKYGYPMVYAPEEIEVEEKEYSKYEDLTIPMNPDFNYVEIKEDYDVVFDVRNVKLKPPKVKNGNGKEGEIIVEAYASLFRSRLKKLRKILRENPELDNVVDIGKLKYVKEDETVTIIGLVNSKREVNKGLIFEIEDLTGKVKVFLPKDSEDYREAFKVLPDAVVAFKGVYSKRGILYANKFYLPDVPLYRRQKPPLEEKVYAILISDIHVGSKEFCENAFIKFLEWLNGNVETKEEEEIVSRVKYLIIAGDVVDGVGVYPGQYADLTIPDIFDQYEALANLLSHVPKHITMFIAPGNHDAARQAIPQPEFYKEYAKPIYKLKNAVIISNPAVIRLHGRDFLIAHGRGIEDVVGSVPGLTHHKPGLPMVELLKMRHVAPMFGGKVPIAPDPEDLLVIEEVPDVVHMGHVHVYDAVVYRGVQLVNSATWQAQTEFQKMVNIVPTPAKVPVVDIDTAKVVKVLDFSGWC
Assay: PCR with Pfu DNA Polymerase II in the presence of acidic substances (λDNA template)
Assay type: biochemical
Conditions: 1 kb fragment, 500 pg λDNA, primers λ1/λ3, 30 cycles 98°C 5 s–66°C 15 s
Protocol: A reaction mixture comprising λDNA as a template, primers λ1 and λ3 as a primer pair, and Pfu DNA Polymerase II as DNA polymerase was prepared, and PCR was carried out. The composition of the reaction mixture is as follows.
10 mM Tris-hydrochloric acid (pH 9.2), 75 mM potassium chloride, 6 mM magnesium chloride, 0.4 mM each of dATP, dCTP, dGTP and dTTP, 0.01% BSA, 1.25 U of Pfu DNA Polymerase II, 500 pg of λDNA, and 5 pmol each of primers λ1 and λ3 (a final volume being 25 μl). […]
Using the sulfated-fucose-containing Polysaccharide-F obtained in Example 6 described above, dextran sulfate powder (manufactured by Onco), or sodium alginate (100 to 150 centipoises, manufactured by Wako Pure Chemicals), the effects of these acidic substances on the activity of Pfu DNA Polymerase II were examined. A reaction mixture comprising λDNA as a template, primers λ1 and λ2 as a primer pair, and Pfu DNA Polymerase II as DNA polymerase was prepared, and PCR was carried out. The composition of the reaction mixture is as follows.
(§1) 10 mM Tris-hydrochloric acid, pH 9.2, 75 mM potassium chloride, 6 mM magnesium chloride, 0.4 mM each of dATP, dCTP, dGTP and dTTP, 0.01% BSA, 1.25 U of Pfu DNA Polymerase II, 100 pg of λDNA, and 5 pmol each of primers λ1 and λ2 (a final volume being 25 μl). Further, 10 ng of the sulfated-fucose-containing polysaccharide-F, 10 ng of dextran sulfate powder, or 1 μg of sodium alginate was respectively added to the above reaction mixture.
(§2) The reaction in 25 cycles was carried out for each of these reaction mixtures, wherein one cycle of reaction comprises a process consisting of 98° C., 5 seconds—66° C., 15 seconds. Thereafter, 5 μl of the resulting reaction mixture was subjected to electrophoresis on 1% agarose gel containing ethidium bromide in an amount of 0.00005%, whereby an amplified fragment was confirmed.
Further, studies were conducted on the effects of the sulfated-fucose-containing polysaccharide-F obtained in Example 6 described above, the sulfated-fucose-containing polysaccharide-U obtained in Example 7 described above, or sodium polyglutamate (manufactured by Sigma) as an acidic substance. A reaction mixture for PCR was prepared in the same manner as described above except for changing the amount of template λDNA to 500 pg and the primer pairs to primers λ1 and λ3. Five nanograms of the sulfated-fucose-containing polysaccharide-F, 5 ng, 10 ng, 20 ng or 30 ng each of the sulfated-fucose-containing polysaccharide-U, or 250 ng, 500 ng, 750 ng or 1000 ng each of sodium polyglutamate was respectively added to the above reaction mixture.
as §2, with “reaction” for “reaction in 25 cycles”, “in 30 cycles,” for “for each of these reaction mixtures,”, “After the termination of the reaction,” for “Thereafter,”
Using the sulfated-fucose-containing polysaccharide-F obtained in Example 6 described above, the effects on the activity of Pfu DNA Polymerase II were examined. A reaction mixture comprising λDNA as a template, primers λ1 and λ2 as a primer pair, and Pfu DNA Polymerase II as DNA polymerase was prepared, and PCR was carried out. The composition of the reaction mixture is as follows.
as §1, with “500” for “100”, “polysaccharide-F” for “polysaccharide-F, 10 ng of dextran sulfate powder, or 1 μg of sodium alginate”
The reaction in 30 cycles was carried out for each of these reaction mixtures, wherein one cycle of reaction comprises a process consisting of 98° C., 5 seconds—66° C., 15 seconds. […]

sodium polyglutamate
Amplification Results (amount added 250 ng): + (Amplification being observed)
Amplification Results (amount added 500 ng): + (Amplification being observed)
Amplification Results (amount added 750 ng): ++ (Intensive amplification being observed)
Amplification Results (amount added 1000 ng): + (Amplification being observed)
